# Where a name gives a salt, the structure may show the parent alone.
row,SMILES,melting point
1,CS(=O)(=O)c1ccc(S(=O)(=O)n2ccc3c(N4CCNCC4)cccc32)cc1 (as salt: trifluoroacetate) [1-(4-methanesulfonyl-benzenesulfonyl)-4-piperazin-1-yl-1H-indole],234 to 235 °C (dec.)
2,O=S(=O)(c1ccc(Cl)cc1)n1ccc2c(N3CCNCC3)cccc21 (as salt: trifluoroacetate) [1-(4-chloro-benzenesulfonyl)-4-piperazin-1-yl-1H-indole],193 to 194 °C
3,CCCS(=O)(=O)c1cccc(S(=O)(=O)n2ccc3c(N4CCNCC4)cccc32)c1 (as salt: trifluoroacetate) [4-piperazin-1-yl-1-[3-(propane-1-sulfonyl)-benzenesulfonyl]-1H-indole],173 to 174 °C
4,"O=S(=O)(c1cc(Cl)ccc1Cl)n1ccc2c(N3CCNCC3)cccc21 (as salt: trifluoroacetate) [1-(2,5-dichloro-benzenesulfonyl)-4-piperazin-1-yl-1H-indole]",237 to 238 °C (dec.)
5,O=S(=O)(c1cccc(C(F)(F)F)c1)n1ccc2c(N3CCNCC3)cccc21 (as salt: hydrochloride) [4-piperazin-1-yl-1-(3-trifluoromethyl-benzenesulfonyl)-1H-indole],256 to 257 °C

# — patent US6790848B2, “4-piperazinylindole derivatives with 5-HT6 receptor affinity” (Syntex (U.S.A.) LLC, priority 2001, dated 2004)
